Assays:
Assay type in all cases: in vivo
[1] = test system: common cutworm (Spodoptera Litura); assay: Insecticidal effect on common cutworm (Test Example 2); conditions: 500 ppm, 25° C.; for Insecticidal effect (Test Example 2), judged from mortality / Insecticidal effect on common cutworm (Test Example 2), judged grade: cabbage leaf dip; for Insecticidal effect (Test Example 2), judged from mortality: 8 days after inoculation; for Insecticidal effect on common cutworm (Test Example 2), judged grade: second-instar larvae; for Insecticidal effect on common cutworm (Test Example 2), judged grade / Insecticidal effect, Test Example 2: eight days after inoculation; for Insecticidal effect, Test Example 2: cabbage leaf immersed
In short: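 Second-instar larvae placed in 9 cm Petri dishes with air-dried treated material, held at 25 °C. Dead and live insects counted 8 days after inoculation; mortality calculated and scored against a set criterion. Triplicate groups of 10 insects.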

[2] = test system: rice leafroller (Cnaphalocrocis medinalis); assay: Insecticidal effect on rice leafroller (Test Example 3); conditions: 500 ppm, 25° C., humidity 70%; for Insecticidal effect (Test Example 3), judged from mortality / Insecticidal effect on rice leafroller (Test Example 3), judged grade: rice lamina dip; for Insecticidal effect (Test Example 3), judged from mortality: 4 days after inoculation; for Insecticidal effect on rice leafroller (Test Example 3), judged grade: third-instar larvae; for Insecticidal effect on rice leafroller (Test Example 3), judged grade / Insecticidal effect, Test Example 3: four days after inoculation; for Insecticidal effect, Test Example 3: rice lamina immersed
In short: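 Groups of 10 third-instar larvae, in triplicate, are placed on air-dried lamina resting on wet filter paper. Incubation runs four days at 25° C with 70% humidity before survivors and dead are tallied.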

[3] = test system: diamondback moth (Plutella xylostella); assay: Insecticidal effect on diamondback moth (Test Example 1); conditions: for Insecticidal effect (Test Example 1), judged from mortality / Insecticidal effect, Test Example 1: diamondback moth; for Insecticidal effect (Test Example 1), judged from mortality: judged by the criterion of Test Example 1; for Insecticidal effect on diamondback moth (Test Example 1), judged grade: mortality judged according to the criterion shown in Test Example 1
In short: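 Read-out was mortality from hatched-insect counts taken 6 days after the egg-bearing cabbage seedling was immersed, graded by set criteria. Seedlings were air-dried and kept at 25° C after treatment. Groups of 10 insects, in triplicate.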

[4] = second-instar larvae of common cutworm
[5] = third-instar larvae of rice leafroller
[6] = common cutworm second-instar larvae
[7] = rice leafroller third-instar larvae
[8] = mortality judged by criterion of Test Example 1
[9] = judged by the mortality criterion of Test Example 1

## Cc1cc(C(F)(F)C(F)(F)F)ccc1NC(=O)c1cccc(Cl)c1C(=O)N[C@@H](C)CO [compound 1445]
[1]; [4]
  Insecticidal effect (Test Example 2), judged from mortality: A (100)
[2]; [5]
  Insecticidal effect (Test Example 3), judged from mortality: A (100)
[3]
  Insecticidal effect (Test Example 1), judged from mortality: A (100)

## CC(C)NC(=O)c1c(I)cccc1C(=O)Nc1ccc(C=C(Cl)C(F)(F)F)cc1 [compound 917]
[1]
  Insecticidal effect on common cutworm (Test Example 2), judged grade: A (100)
[2]
  Insecticidal effect on rice leafroller (Test Example 3), judged grade: A (100)
[3]
  Insecticidal effect on diamondback moth (Test Example 1), judged grade: A (100)

## CC(C)(C)NC(=O)c1c(Cl)cccc1C(=O)Nc1ccc2c(c1)OC(F)(F)C(F)(F)O2 [compound 1066]
[1]; [6]
  Insecticidal effect, Test Example 2: C (89-80)
[2]; [7]
  Insecticidal effect, Test Example 3: A (100)
[3]; [8]
  Insecticidal effect, Test Example 1: A (100)

## Cc1cc(OC(F)(F)F)ccc1NC(=O)c1cccc(I)c1C(=O)NC(C)(C)C [compound 957]
[1]; [6]
  Insecticidal effect, Test Example 2: A (100)
[2]; [7]
  Insecticidal effect, Test Example 3: A (100)
[3]; [8]
  Insecticidal effect, Test Example 1: A (100)

## Cc1cc(Cl)ccc1NC(=O)c1ccc(Cl)cc1C(=O)NC(C)C [compound 177]
[1]; [4]
  Insecticidal effect, Test Example 2: A (100)
[2]; [5]
  Insecticidal effect, Test Example 3: A (100)
[3]; [9]
  Insecticidal effect, Test Example 1: A (100)

## CCN(CC)C(=O)c1c(Cl)cccc1C(=O)Nc1ccc(C(F)(F)C(F)(F)F)cc1F [compound 1541]
[1]; [4]
  Insecticidal effect (Test Example 2), judged from mortality: A (100)
[2]; [5]
  Insecticidal effect (Test Example 3), judged from mortality: A (100)
[3]
  Insecticidal effect (Test Example 1), judged from mortality: A (100)

## Cc1cc(C(F)(F)C(F)(F)F)ccc1NC(=O)c1cccc(C)c1C(=O)NC(C)(C)C [compound 955]
[1]; [6]
  Insecticidal effect, Test Example 2: A (100)
[2]; [7]
  Insecticidal effect, Test Example 3: A (100)
[3]; [8]
  Insecticidal effect, Test Example 1: A (100)

## Cc1cc(OC(F)(F)C(F)(Br)C(F)(F)F)ccc1NC(=O)c1cccc(Cl)c1C(=O)NC(C)C (stereo not drawn) [compound 148]
[1]; [4]
  Insecticidal effect, Test Example 2: A (100)
[2]; [5]
  Insecticidal effect, Test Example 3: A (100)
[3]; [9]
  Insecticidal effect, Test Example 1: A (100)

## Cc1cc(OC(F)F)c(Cl)cc1NC(=O)c1cccc(Cl)c1C(=O)NC(C)C [compound 150]
[1]; [4]
  Insecticidal effect, Test Example 2: A (100)
[2]; [5]
  Insecticidal effect, Test Example 3: A (100)
[3]; [9]
  Insecticidal effect, Test Example 1: A (100)

## CC(C)(C)NC(=O)c1c(I)cccc1C(=O)Nc1ccc2c(c1)OC(F)(F)C(F)(F)O2 [compound 1067]
[1]; [6]
  Insecticidal effect, Test Example 2: A (100)
[2]; [7]
  Insecticidal effect, Test Example 3: A (100)
[3]; [8]
  Insecticidal effect, Test Example 1: A (100)

## Cc1cc(C(F)(F)C(F)(F)F)c(Cl)cc1NC(=O)c1cccc(I)c1C(=O)NC(C)C [compound 1653]
[1]; [4]
  Insecticidal effect (Test Example 2), judged from mortality: A (100)
[2]; [5]
  Insecticidal effect (Test Example 3), judged from mortality: A (100)
[3]
  Insecticidal effect (Test Example 1), judged from mortality: A (100)

## Cc1cc(OC(F)(F)C(F)F)c(Cl)cc1NC(=O)c1cccc(Cl)c1C(=O)NC(C)C [compound 152]
[1]; [4]
  Insecticidal effect, Test Example 2: A (100)
[2]; [5]
  Insecticidal effect, Test Example 3: A (100)
[3]; [9]
  Insecticidal effect, Test Example 1: A (100)

## COc1cc(NC(=O)c2cccc([N+](=O)[O-])c2C(=O)NC(C)C)cc(C(F)(F)F)c1 [compound 691]
[1]
  Insecticidal effect on common cutworm (Test Example 2), judged grade: D (79-50)
[2]
  Insecticidal effect on rice leafroller (Test Example 3), judged grade: C (89-80)
[3]
  Insecticidal effect on diamondback moth (Test Example 1), judged grade: A (100)

## Cc1cc(OC(F)(F)F)ccc1NC(=O)c1ccc(F)c(Cl)c1C(=O)NC(C)C [compound 1227]
[1]; [6]
  Insecticidal effect, Test Example 2: A (100)
[2]; [7]
  Insecticidal effect, Test Example 3: A (100)
[3]; [8]
  Insecticidal effect, Test Example 1: A (100)

## CCC(C)(C)NC(=O)c1c(I)cccc1C(=O)Nc1ccc(C(F)(F)C(F)(F)F)cc1C [compound 1565]
[1]; [4]
  Insecticidal effect (Test Example 2), judged from mortality: A (100)
[2]; [5]
  Insecticidal effect (Test Example 3), judged from mortality: A (100)
[3]
  Insecticidal effect (Test Example 1), judged from mortality: A (100)

## Cc1cc(OC(F)(F)C(F)C(F)(F)F)ccc1NC(=O)c1c(Br)cccc1C(=O)NC(C)C (stereo not drawn) [compound 328]
[1]; [4]
  Insecticidal effect, Test Example 2: A (100)
[2]; [5]
  Insecticidal effect, Test Example 3: A (100)
[3]; [9]
  Insecticidal effect, Test Example 1: A (100)

## Cc1cc(Sc2ccc(Cl)cc2)ccc1NC(=O)c1ccccc1C(=O)NC(C)C [compound 77]
[1]; [4]
  Insecticidal effect, Test Example 2: C (89-80)
[2]; [5]
  Insecticidal effect, Test Example 3: A (100)
[3]; [9]
  Insecticidal effect, Test Example 1: A (100)

## CCN(CC)C(=O)c1c(Cl)cccc1C(=O)Nc1ccc(OC(F)(F)C(F)F)cc1C [compound 1539]
[1]; [4]
  Insecticidal effect (Test Example 2), judged from mortality: A (100)
[2]; [5]
  Insecticidal effect (Test Example 3), judged from mortality: A (100)
[3]
  Insecticidal effect (Test Example 1), judged from mortality: A (100)

## CC(C)(C)NC(=O)c1c(I)cccc1C(=O)Nc1ccc(C(F)(F)C(F)(F)C(F)(F)F)cc1F [compound 1504]
[1]; [4]
  Insecticidal effect (Test Example 2), judged from mortality: A (100)
[2]; [5]
  Insecticidal effect (Test Example 3), judged from mortality: A (100)
[3]
  Insecticidal effect (Test Example 1), judged from mortality: A (100)

## CCNC(=O)c1c(I)cccc1C(=O)Nc1ccc(C(F)(F)C(F)(F)F)cc1Cl [compound 1503]
[1]; [4]
  Insecticidal effect (Test Example 2), judged from mortality: C (89-80)
[2]; [5]
  Insecticidal effect (Test Example 3), judged from mortality: A (100)
[3]
  Insecticidal effect (Test Example 1), judged from mortality: A (100)

## CC(C)NC(=O)c1ccccc1C(=O)Nc1ccc(C(F)(F)C(F)(F)C(F)(F)F)cc1 [compound 27]
[1]; [4]
  Insecticidal effect, Test Example 2: A (100)
[2]; [5]
  Insecticidal effect, Test Example 3: C (89-80)
[3]; [9]
  Insecticidal effect, Test Example 1: A (100)

## CC(C)NC(=O)c1c(I)cccc1C(=O)Nc1ccc2oc(C(F)(F)C(F)(F)C(F)(F)F)nc2c1 [compound 1637]
[1]; [4]
  Insecticidal effect (Test Example 2), judged from mortality: A (100)
[2]; [5]
  Insecticidal effect (Test Example 3), judged from mortality: A (100)
[3]
  Insecticidal effect (Test Example 1), judged from mortality: A (100)

## Cc1cc(I)ccc1NC(=O)c1cccc([N+](=O)[O-])c1C(=O)NC(C)C [compound 673]
[1]
  Insecticidal effect on common cutworm (Test Example 2), judged grade: D (79-50)
[2]
  Insecticidal effect on rice leafroller (Test Example 3), judged grade: D (79-50)
[3]
  Insecticidal effect on diamondback moth (Test Example 1), judged grade: A (100)

## Cc1ccc(Cl)cc1NC(=O)c1cccc(Br)c1C(=O)NC(C)C [compound 268]
[1]; [4]
  Insecticidal effect, Test Example 2: A (100)
[2]; [5]
  Insecticidal effect, Test Example 3: A (100)
[3]; [9]
  Insecticidal effect, Test Example 1: A (100)

## Cc1cc(OC(F)(F)Br)ccc1NC(=O)c1cccc(Cl)c1C(=O)NC(C)C [compound 140]
[1]; [4]
  Insecticidal effect, Test Example 2: A (100)
[2]; [5]
  Insecticidal effect, Test Example 3: A (100)
[3]; [9]
  Insecticidal effect, Test Example 1: A (100)

## CCNC(=O)c1c(C(=O)Nc2ccc(OC(F)F)cc2C)cccc1[N+](=O)[O-] [compound 11]
[1]; [4]
  Insecticidal effect, Test Example 2: C (89-80)
[2]; [5]
  Insecticidal effect, Test Example 3: C (89-80)
[3]; [9]
  Insecticidal effect, Test Example 1: A (100)

## Cc1cc(OC(F)(F)C(F)Cl)ccc1NC(=O)c1cccc(Cl)c1C(=O)NC(C)C (stereo not drawn) [compound 143]
[1]; [4]
  Insecticidal effect, Test Example 2: A (100)
[2]; [5]
  Insecticidal effect, Test Example 3: A (100)
[3]; [9]
  Insecticidal effect, Test Example 1: A (100)

## CC(C)NC(=O)c1c(Cl)cccc1C(=O)Nc1ccc(C(O)(C(F)(F)F)C(F)(F)F)cc1 [compound 980]
[1]; [6]
  Insecticidal effect, Test Example 2: A (100)
[2]; [7]
  Insecticidal effect, Test Example 3: A (100)
[3]; [8]
  Insecticidal effect, Test Example 1: A (100)

## Cc1ccc(Cl)cc1NC(=O)c1cccc(I)c1C(=O)NC(C)C [compound 363]
[1]; [4]
  Insecticidal effect, Test Example 2: A (100)
[2]; [5]
  Insecticidal effect, Test Example 3: A (100)
[3]; [9]
  Insecticidal effect, Test Example 1: A (100)

## CCN(CC)C(=O)c1c(I)cccc1C(=O)Nc1ccc(C(F)(F)F)cc1 [compound 1558]
[1]; [4]
  Insecticidal effect (Test Example 2), judged from mortality: C (89-80)
[2]; [5]
  Insecticidal effect (Test Example 3), judged from mortality: A (100)
[3]
  Insecticidal effect (Test Example 1), judged from mortality: A (100)

## Cc1c(NC(=O)c2cccc([N+](=O)[O-])c2C(=O)NC(C)C)cccc1C(F)(F)F [compound 681]
[1]
  Insecticidal effect on common cutworm (Test Example 2), judged grade: A (100)
[2]
  Insecticidal effect on rice leafroller (Test Example 3), judged grade: A (100)
[3]
  Insecticidal effect on diamondback moth (Test Example 1), judged grade: A (100)

## CC(C)NC(=O)c1c(I)cccc1C(=O)Nc1ccc2c(c1Cl)OC(F)(F)C(F)O2 (racemic) [compound 1679]
[1]; [4]
  Insecticidal effect (Test Example 2), judged from mortality: A (100)
[2]; [5]
  Insecticidal effect (Test Example 3), judged from mortality: A (100)
[3]
  Insecticidal effect (Test Example 1), judged from mortality: A (100)

## C#Cc1cccc(C(=O)NC(C)C)c1C(=O)Nc1ccc(Cl)cc1C [compound 801]
[1]
  Insecticidal effect on common cutworm (Test Example 2), judged grade: A (100)
[2]
  Insecticidal effect on rice leafroller (Test Example 3), judged grade: D (79-50)
[3]
  Insecticidal effect on diamondback moth (Test Example 1), judged grade: A (100)

## CC(C)NC(=O)c1c(I)cccc1C(=O)Nc1ccc(OC(F)F)c(OC(F)F)c1 [compound 385]
[1]; [4]
  Insecticidal effect, Test Example 2: B (99-90)
[2]; [5]
  Insecticidal effect, Test Example 3: A (100)
[3]; [9]
  Insecticidal effect, Test Example 1: A (100)

## CC(C)NC(=O)c1c(C(=O)Nc2ccc(OC(F)(F)F)cc2)cccc1[N+](=O)[O-] [compound 618]
[1]
  Insecticidal effect on common cutworm (Test Example 2), judged grade: A (100)
[2]
  Insecticidal effect on rice leafroller (Test Example 3), judged grade: A (100)
[3]
  Insecticidal effect on diamondback moth (Test Example 1), judged grade: A (100)

## Cc1cc(Cl)ccc1NC(=O)c1cccc(I)c1C(=O)NC(C)(C)C [compound 941]
[1]; [6]
  Insecticidal effect, Test Example 2: A (100)
[2]; [7]
  Insecticidal effect, Test Example 3: A (100)
[3]; [8]
  Insecticidal effect, Test Example 1: A (100)
